Assay results: ChEMBL document CHEMBL5608255, “Inhibitors of the Cyclic GMP-AMP Synthase (cGAS) as Potential Treatment for Autoimmune and Inflammatory Diseases” (ACS Med Chem Lett, 2024)

Experiments:
[1] = target: T1, Cyclic GMP-AMP synthase (Homo sapiens, UniProt Q8N884); test: Inhibition of N-terminal 6His-SUMO tagged human cGAS (1 to 522 residues) extracted from Escherichia coli BL21(DE3)pLysS cells using GTP/ATP as substrate by measuring cGAMP production incubated for 90 mins in presence of 45 base pair DNA by mass spectrometric analysis
T1 sequence (Q8N884 whole entry, the tested form may be a part): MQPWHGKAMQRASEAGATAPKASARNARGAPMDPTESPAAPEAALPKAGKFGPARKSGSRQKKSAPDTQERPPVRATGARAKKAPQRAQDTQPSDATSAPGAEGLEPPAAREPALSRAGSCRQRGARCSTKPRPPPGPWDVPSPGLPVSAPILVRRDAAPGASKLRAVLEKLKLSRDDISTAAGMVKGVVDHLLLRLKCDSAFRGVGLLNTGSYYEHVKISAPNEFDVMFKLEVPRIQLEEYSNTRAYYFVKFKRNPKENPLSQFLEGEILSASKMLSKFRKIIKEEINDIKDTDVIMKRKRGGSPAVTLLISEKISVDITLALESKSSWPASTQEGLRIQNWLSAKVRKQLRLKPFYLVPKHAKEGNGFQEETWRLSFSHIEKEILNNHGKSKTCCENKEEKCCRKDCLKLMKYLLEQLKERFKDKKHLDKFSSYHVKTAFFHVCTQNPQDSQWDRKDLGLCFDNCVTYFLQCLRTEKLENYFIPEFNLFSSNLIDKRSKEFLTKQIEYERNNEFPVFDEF

[2] = target: T1, Cyclic GMP-AMP synthase; test: Inhibition of cGAS in human THP-1 cells expressed in baculovirus infected insect cells incubated for 18 hrs by Lucia luciferase reporter assay
[3] = target: T1, Cyclic GMP-AMP synthase; test: Inhibition of cGAS in dsDNA stimulated human Whole blood cell by measuring IFNalpha-2a production incubated for 60 mins followed by addition of double stranded DNA measured after 1350 mins by microplate reader assay; assay type: tissue-based
[4] = target: T1, Cyclic GMP-AMP synthase; test: Ratio of IC50 for inhibition of cGAS in human THP-1 cells using cGAMP as substrate to IC50 for inhibition of cGAS in human THP-1 cells expressed in baculovirus infected insect cells

IC50 [1] [nM] | IC50 [2] [nM] | IC50 [3] [nM] | Ratio IC50 [4] | Compound
2.8 | 2.8 | 5 | > 3560 | CC(=O)[C@@H]1C[C@H]2CN1c1nc(nc3c1oc1ccccc13)CCOCCCC(=O)N1CC[C@@H]([C@@H](C)C1)n1c(nc3cc(Cl)ccc31)O2
– | 1.5 | 4 | > 6580 | C[C@H]1CN2CC[C@@H]1n1c(nc3ccccc31)O[C@H]1C[C@@H](C(=O)O)N(C1)c1nc(nc3c1oc1cc(Cl)ccc13)C(F)(F)CCCOCC2=O
– | 500 | 186 | 15 | C[C@H]1CN2CC[C@@H]1n1c(nc3ccccc31)O[C@H]1C[C@@H](C(=O)O)N(C1)c1nc(nc3c1oc1ccccc13)CCCCCN(C)C2=O
– | 39 | 87 | > 253 | C[C@@H]1CN2CC[C@H]1n1c(nc3cc(Cl)ccc31)O[C@H]1C[C@@H](C(=O)O)N(C1)c1nc(nc3c1oc1ccccc13)CCOCCCC2=O
– | 2.4 | 17 | 3930 | C[C@H]1CN2CC[C@@H]1n1c(nc3cc(Cl)ccc31)O[C@H]1C[C@@H](C(=O)O)N(C1)c1nc(nc3c1oc1cc(Cl)ccc13)CCOCCCC2=O
2.1 | 0.44 | 1 | 32100 | C[C@H]1CN2CC[C@H]1n1c(nc3ccccc31)O[C@H]1C[C@@H](C(=O)O)N(C1)c1nc(nc3c1oc1ccccc13)C(F)(F)COCCCCC2=O
– | 3.1 | 3 | > 2220 | C[C@H]1CN2CC[C@@H]1n1c(nc3cc(Cl)ccc31)O[C@H]1C[C@@H](C(=O)O)N(C1)c1nc(nc3c1oc1ccccc13)C(F)(F)OCCCCC2=O
– | 180 | 1580 | 33 | Cc1cccc2c1nc1n2[C@@H]2CCN(C[C@H]2C)C(=O)CCCCCC(F)(F)c2nc(c3oc4ccccc4c3n2)N2C[C@H](C[C@H]2C(=O)O)O1
– | 13 | 8 | 519 | C[C@H]1CN2CC[C@@H]1n1c(nc3ccccc31)O[C@H]1C[C@@H](C(=O)O)N(C1)c1nc(nc3c1oc1ccccc13)C(F)(F)CCCCC(F)(F)C2=O
– | 180 | 439 | 45 | C[C@@H]1CN2CC[C@H]1n1c(nc3ccccc31)O[C@H]1C[C@@H](C(=O)O)N(C1)c1nc(nc3c1oc1ccccc13)CCCCCOC2=O
